*1 amine or outer side, *2 acyl side, *3 side chain or, on linkers, in order; H or OH if unused. Where a SMILES comes first, the peptide text is derived from it. Bridges are numbered along the chain shown (N, C = ends). Roman numbers before positions name the chains, in order. [ ]: non-standard residue; d: D form. The star is where a group is joined. ξ: configuration not given here. TATA = O=C(CC[*:1])N1CN(C(=O)CC[*:2])CN(C(=O)CC[*:3])C1; Dolaproine = CO[C@@H]([C@@H]1CCCN1)[C@@H](C)C(=O)O; X1 = CC[C@H](C)C(C(CC(=O)[*:2])OC)N(C)[*:1]; 1Nal = N[C@@H](Cc1cccc2ccccc12)C(=O)O; X3 = O=C(CCCC(=O)[*:2])NCCC(=O)[*:1]; PABC = O=C(OCc1ccc(N[*:1])cc1)[*:2]; Hyp = O=C(O)[C@@H]1C[C@@H](O)CN1; hArg = N=C(N)NCCCC[C@H](N)C(=O)O; Cit = NC(=O)NCCC[C@H](N)C(=O)O; X2 = CC(N*)[C@@H](O)c1ccccc1; ξNMeV = CNC(C(=O)O)C(C)C; ξV = CC(C)C(N)C(=O)O; Sar = CNCC(=O)O
How the values were obtained:
MDA-MB-468 xenograft = experiment: Example 9.9: in vivo efficacy of BCY8245 alone or with BCY8234 in MDA-MB-468 xenograft (large tumors) in Balb/c nude mice; set-up: species or system Mus Musculus
[1] = BCY8245 (BT8009) at 3 mg/kg
Method: At various timepoints, animals were euthanized and plasma and tumour taken and snap frozen. Samples were analysed for MMAE.

LU-01-0412 PDX = experiment: Example 12: in vivo efficacy in Lu-01-0412 PDX model of lung cancer; set-up: species or system Mus Musculus
Method: (§1) Animals were checked daily for any effects of tumor growth and treatments on normal behavior such as mobility, food and water consumption (by looking only), body weight gain/loss, eye/hair matting and any other abnormal effect as stated in the protocol. Death and observed clinical signs were recorded on the basis of the numbers of animals within each subset.

LU-01-0007 PDX = experiment: Example 12: in vivo efficacy in LU-01-0007 PDX model of lung cancer; set-up: species or system Mus Musculus
Method: as §1

human Nectin-4 = molecular target: T1, human Nectin-4 (Homo sapiens, UniProt Q96NY8); experiment: Nectin-4 Biacore SPR binding assay
T1 sequence (Q96NY8 32-349): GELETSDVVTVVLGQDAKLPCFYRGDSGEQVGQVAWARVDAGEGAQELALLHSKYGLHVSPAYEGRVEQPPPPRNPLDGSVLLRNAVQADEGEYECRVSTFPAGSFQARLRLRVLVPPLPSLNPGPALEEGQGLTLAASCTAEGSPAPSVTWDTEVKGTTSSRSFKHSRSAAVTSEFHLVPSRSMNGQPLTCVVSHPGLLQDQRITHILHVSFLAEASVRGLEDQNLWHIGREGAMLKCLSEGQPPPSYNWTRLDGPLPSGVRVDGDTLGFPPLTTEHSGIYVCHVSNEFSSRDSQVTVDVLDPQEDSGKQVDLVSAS
Method: Biacore experiments were performed to determine ka (M^−1 s^−1), kd (s^−1), KD (nM) values of monomeric peptides binding to human Necin-4 protein (obtained from Charles River).
Human Nectin-4 (residues Gly32-Ser349; NCBI RefSeq: NP_112178.2) with a gp67 signal sequence and C-terminal FLAG tag was cloned into pFastbac-1 and baculovirus made using standard Bac-to-Bac™ protocols (Life Technologies). Sf21 cells at 1×10^6 ml^−1 in Excell-420 medium (Sigma) at 27° C. were infected at an MOI of 2 with a P1 virus stock and the supernatant harvested at 72 hours. […] The protein was eluted with 100 μg/ml FLAG peptide. The eluted protein was concentrated to 2 ml and loaded onto an S-200 Superdex column (GE Healthcare) in PBS at 1 ml/min. 2 ml fractions were collected and the fractions containing Nectin-4 protein were concentrated to 16 mg/ml.
The protein was extensively desalted to remove uncoupled biotin using spin columns into PBS.
For analysis of peptide binding, a Biacore 3000 instrument was used utilising a CM5 chip (GE Healthcare). Streptavidin was immobilized on the chip using standard amine-coupling chemistry at 25° C. with HBS-N (10 mM HEPES, 0.15 M NaCl, pH 7.4) as the running buffer. Briefly, the carboxymethyl dextran surface was activated with a 7 minute injection of a 1:1 ratio of 0.4 M 1-ethyl-3-(3-dimethylaminopropyl) carbodiimide hydrochloride (EDC)/0.1 M N-hydroxy succinimide (NHS) at a flow rate of 10 μl/min. For capture of streptavidin, the protein was diluted to 0.2 mg/ml in 10 mM sodium acetate (pH 4.5) and captured by injecting 120 μl of streptavidin onto the activated chip surface. Residual activated groups were blocked with a 7 minute injection of 1 M ethanolamine (pH 8.5) and biotinylated Nectin-4 captured to a level of 1,200-1,800 RU. Buffer was changed to PBS/0.05% Tween 20 and a dilution series of the peptides was prepared in this buffer with a final DMSO concentration of 0.5%. The top peptide concentration was 100 nM with 6 further 2-fold dilutions. The SPR analysis was run at 25° C. at a flow rate of 50 μl/min with 60 seconds association and dissociation between 400 and 1,200 seconds depending upon the individual peptide. Data were corrected for DMSO excluded volume effects. All data were double-referenced for blank injections and reference surface using standard processing procedures and data processing and kinetic fitting were performed using Scrubber software, version 2.0c (BioLogic Software). Data were fitted using simple 1:1 binding model allowing for mass transport effects where appropriate.

CC[C@H](C)C(C(CC(=O)N1CCC[C@H]1[C@H](OC)[C@@H](C)C(=O)NC(C)[C@@H](O)c1ccccc1)OC)N(C)C(=O)[C@@H](NC(=O)C(C(C)C)N(C)C(=O)OCc1ccc(NC(=O)[C@H](CCCNC(N)=O)NC(=O)C(NC(=O)CCCC(=O)NCCC(=O)N(C)CC(=O)N(C)CC(=O)N(C)CC(=O)N(C)CC(=O)N(C)CC(=O)N(C)CC(=O)N(C)CC(=O)N(C)CC(=O)N(C)CC(=O)N(C)CC(=O)N[C@H]2CSCCC(=O)N3CN4CN(C3)C(=O)CCSC[C@H](NC(=O)[C@@H](CC(=O)O)NC(=O)[C@H](Cc3cccc5ccccc35)NC(=O)[C@@H]3CCCN3C2=O)C(=O)N[C@@H](CCSC)C(=O)N[C@@H](CCCCNC(=N)N)C(=O)N[C@@H](CC(=O)O)C(=O)N[C@@H](Cc2c[nH]c3ccccc23)C(=O)N[C@@H](CO)C(=O)N[C@@H]([C@@H](C)O)C(=O)N2CCC[C@H]2C(=O)N2C[C@H](O)C[C@H]2C(=O)N[C@@H](Cc2c[nH]c3ccccc23)C(=O)N[C@H](C(N)=O)CSCCC4=O)C(C)C)cc1)C(C)C (stereo partly drawn) [BCY8245, MMAE-PABC-Cit-Val-Glutaryl-BCY8234] (I: [Sar][Sar][Sar][Sar][Sar][Sar][Sar][Sar][Sar][Sar]CP[1Nal][dD]CM[hArg]DWSTP[Hyp]WC-NH2 / II: [ξV][Cit][PABC][ξNMeV]V[X1][Dolaproine]-X2; linker I:11-I:15-I:25 via TATA; linker I:N-II:N via X3)
Tumor volume (MDA-MB-468 xenograft; 3 mpk, qw, day 0 after the start of treatment): 464 mm^3
Tumor volume (MDA-MB-468 xenograft; 3 mpk, qw, day 2): 451 mm^3
Tumor volume (MDA-MB-468 xenograft; 3 mpk, qw, day 5): 388 mm^3
Tumor volume (MDA-MB-468 xenograft; 3 mpk, qw, day 7): 333 mm^3
Tumor volume (MDA-MB-468 xenograft; 3 mpk, qw, day 9): 284 mm^3
Tumor volume (MDA-MB-468 xenograft; 3 mpk, qw, day 12): 168 mm^3
Tumor volume (MDA-MB-468 xenograft; 3 mpk, qw, day 14): 129 mm^3
Tumor volume (MDA-MB-468 xenograft; 3 mpk, qw, day 16): 93 mm^3
Tumor volume (MDA-MB-468 xenograft; 3 mpk, qw, day 19): 83 mm^3
Tumor volume (MDA-MB-468 xenograft; 3 mpk, qw, day 21): 71 mm^3
Tumor volume (MDA-MB-468 xenograft; 3 mpk, qw, day 23): 60 mm^3
Tumor volume (MDA-MB-468 xenograft; 3 mpk, qw, day 26): 49 mm^3
T/C (MDA-MB-468 xenograft; 3 mpk, qw, day 28): 6.4%
TGI (MDA-MB-468 xenograft; 3 mpk, qw, day 28): 234.6%
Tumor volume (MDA-MB-468 xenograft; 3 mpk, qw, day 28): 50 mm^3
Tumor volume (MDA-MB-468 xenograft; Group1, Vehicle, dosed with 5 mpk BCY8245 on PG-D28, day 30): 625 ± 27 mm^3
Tumor volume (MDA-MB-468 xenograft; Group1, Vehicle, dosed with 5 mpk BCY8245 on PG-D28, day 33): 477 ± 31 mm^3
Tumor volume (MDA-MB-468 xenograft; Group1, Vehicle, dosed with 5 mpk BCY8245 on PG-D28, day 35): 405 ± 65 mm^3
Tumor volume (MDA-MB-468 xenograft; Group1, Vehicle, dosed with 5 mpk BCY8245 on PG-D28, day 37): 237 ± 36 mm^3
Tumor volume (MDA-MB-468 xenograft; Group1, Vehicle, dosed with 5 mpk BCY8245 on PG-D28, day 40): 148 ± 33 mm^3
Tumor volume (MDA-MB-468 xenograft; Group1, Vehicle, dosed with 5 mpk BCY8245 on PG-D28, day 42): 142 ± 33 mm^3
Tumor volume (MDA-MB-468 xenograft; Group1, Vehicle, dosed with 5 mpk BCY8245 on PG-D28, day 44): 132 ± 69 mm^3
Tumor volume (MDA-MB-468 xenograft; Group1, Vehicle, dosed with 5 mpk BCY8245 on PG-D28, day 48): 146 ± 100 mm^3
Tumor volume (MDA-MB-468 xenograft; Group1, Vehicle, dosed with 5 mpk BCY8245 on PG-D28, day 51): 171 ± 122 mm^3
Tumor volume (MDA-MB-468 xenograft; Group1, Vehicle, dosed with 5 mpk BCY8245 on PG-D28, day 55): 227 ± 166 mm^3
Tumor volume (MDA-MB-468 xenograft; Group1, Vehicle, dosed with 5 mpk BCY8245 on PG-D28, day 56): 264 ± 182 mm^3
Tumor volume (MDA-MB-468 xenograft; Group1, Vehicle, dosed with 5 mpk BCY8245 on PG-D28, day 62): 288 ± 206 mm^3
Tumor volume (MDA-MB-468 xenograft; Group 2, 1 mpk, change in 5 mpk on PG-D28, day 30): 351 ± 42 mm^3
Tumor volume (MDA-MB-468 xenograft; Group 2, 1 mpk, change in 5 mpk on PG-D28, day 33): 213 ± 29 mm^3
Tumor volume (MDA-MB-468 xenograft; Group 2, 1 mpk, change in 5 mpk on PG-D28, day 35): 151 ± 18 mm^3
Tumor volume (MDA-MB-468 xenograft; Group 2, 1 mpk, change in 5 mpk on PG-D28, day 37): 98 ± 16 mm^3
Tumor volume (MDA-MB-468 xenograft; Group 2, 1 mpk, change in 5 mpk on PG-D28, day 40): 89 ± 17 mm^3
Tumor volume (MDA-MB-468 xenograft; Group 2, 1 mpk, change in 5 mpk on PG-D28, day 42): 95 ± 16 mm^3
Tumor volume (MDA-MB-468 xenograft; Group 2, 1 mpk, change in 5 mpk on PG-D28, day 44): 103 ± 20 mm^3
Tumor volume (MDA-MB-468 xenograft; Group 2, 1 mpk, change in 5 mpk on PG-D28, day 48): 106 ± 21 mm^3
Tumor volume (MDA-MB-468 xenograft; Group 2, 1 mpk, change in 5 mpk on PG-D28, day 51): 103 ± 21 mm^3
Tumor volume (MDA-MB-468 xenograft; Group 2, 1 mpk, change in 5 mpk on PG-D28, day 55): 104 ± 20 mm^3
Tumor volume (MDA-MB-468 xenograft; Group 2, 1 mpk, change in 5 mpk on PG-D28, day 56): 120 ± 23 mm^3
Tumor volume (MDA-MB-468 xenograft; Group3, 3 mpk, qw, day 30): 44 ± 18 mm^3
Tumor volume (MDA-MB-468 xenograft; Group3, 3 mpk, qw, day 33): 43 ± 20 mm^3
Tumor volume (MDA-MB-468 xenograft; Group3, 3 mpk, qw, day 35): 44 ± 20 mm^3
Tumor volume (MDA-MB-468 xenograft; Group3, 3 mpk, qw, day 37): 50 ± 24 mm^3
Tumor volume (MDA-MB-468 xenograft; Group3, 3 mpk, qw, day 40): 55 ± 29 mm^3
Tumor volume (MDA-MB-468 xenograft; Group3, 3 mpk, qw, day 42): 66 ± 32 mm^3
Tumor volume (MDA-MB-468 xenograft; Group3, 3 mpk, qw, day 44): 71 ± 33 mm^3
Tumor volume (MDA-MB-468 xenograft; Group3, 3 mpk, qw, day 48): 80 ± 36 mm^3
Tumor volume (MDA-MB-468 xenograft; Group3, 3 mpk, qw, day 51): 91 ± 43 mm^3
Tumor volume (MDA-MB-468 xenograft; Group3, 3 mpk, qw, day 55): 108 ± 53 mm^3
Tumor volume (MDA-MB-468 xenograft; Group3, 3 mpk, qw, day 56): 125 ± 58 mm^3
tumor response (in words) (MDA-MB-468 xenograft; former vehicle group and group 2, 5 mg/kg on PG-D28, following 3 weeks): effective tumor regression
retention of MMAE in tumour versus plasma (in words) [1]: retained in the tumour longer than in plasma
efficacy (in words) (LU-01-0412 PDX; 1 mg/kg qw): reduction in tumour growth rate
efficacy (in words) (LU-01-0412 PDX; 3 mg/kg qw): marked tumor regression
animals with no tumour regrowth (LU-01-0412 PDX; 3 mg/kg qw, after cessation of dosing (Day 21) out to 105 days post study start): 5/6
response of large tumors (vehicle treated group) to a single dose (in words) (LU-01-0412 PDX; single dose): regressed
efficacy (in words) (LU-01-0007 PDX; 1 mg/kg qw): stable disease
tumor regrowth (in words) (LU-01-0007 PDX; 3 mg/kg, after dosing ceased, out to 126 days post study start): no tumor regrowth
efficacy (in words) (LU-01-0007 PDX; 3 mg/kg, dosing maintained out to day 56): full regression
binding to human Nectin-4 in the SPR binding assay (in words) (human Nectin-4): excellent binding
Kd (human Nectin-4; read-out: Human SPR Kd, bicyclic drug conjugates (Table 4)): 5.12 nM

— patent US12459974B2, “Bicyclic peptide ligands specific for Nectin-4” (priority 2018, dated 2025)
